# What was measured:
# Assay type in all cases: in vivo
# Conditions in all cases: evaluated after 13 days
# Zea mays (ZEAMX) [1] = assay: Post-emergence Test (Table B2), ZEAMX; set-up: key: 5-point damage scale: 5=81-100%, 4=61-80%, 3=41-60%, 2=21-40%, 1=0-20%
# Protocol: Seeds of a variety of test species are sown in standard soil in pots (Ipomoea hederacea (IPOHE), Zea mays (ZEAMX), Echinochloa crus-galli (ECHCG), Amaranthus palmeri (AMAPA), (Amaranthus retoflexus (AMARE), and (Setaria faberi (SETFA)). After 8 days cultivation under controlled conditions in a glasshouse (at 24° C./16° C., day/night; 14 hours light; 65% humidity), the plants are sprayed with an aqueous spray solution derived from the formulation of the technical active ingredient in acetone/water (50:50) solution containing 0.5% Tween 20 (polyoxyethelyene sorbitan monolaurate, CAS RN 9005-64-5). Rate of application is shown in g/ha in the tables below. The test plants are then grown in a glasshouse under controlled conditions in a glasshouse (at 24° C./16° C., day/night; 14 hours light; 65% humidity) and watered twice daily. After 13 days the test is evaluated for the percentage damage caused to the plant. The biological activities are shown in the following table on a five-point scale (5=81-100%; 4=61-80%; 3=41-60%; 2=21-40%; 1=0-20%; -=not tested).
# [2] = system: Amaranthus retoflexus (AMARE); assay: Pre-emergence Test (Table B1), AMARE
# [3] = system: Amaranthus palmeri (AMAPA); assay: Pre-emergence Test (Table B1), AMAPA
# Zea mays (ZEAMX) [4] = assay: Pre-emergence Test (Table B1), ZEAMX
structure (smiles),measurement,setting,value
"CCn1c(Cc2ccc(F)cc2)cc(=O)c(C(=O)O)c1-c1ccc(Cl)c(Cl)c1 [Compound 12, 2-(3,4-dichlorophenyl)-1-ethyl-6-[(4-fluorophenyl)methyl]-4-oxo-pyridine-3-carboxylic acid]","percentage damage caused to the plant, ZEAMX",Zea mays (ZEAMX) [1]; rate 1000 g/Ha,0
same,"Pre-emergence Test, percentage damage caused to the plant (five-point scale), AMARE",[2]; Rate 1000 g/Ha,0
"CCn1c(Cc2cccc(C(F)(F)F)n2)cc(=O)c(C(=O)O)c1-c1ccc(Cl)c(Cl)c1 [Compound 39, 2-(3,4-dichlorophenyl)-1-ethyl-4-oxo-6-[[6-(trifluoromethyl)-2-pyridyl]methyl]pyridine-3-carboxylic acid]","Pre-emergence Test, percentage damage caused to the plant (five-point scale), AMAPA",[3]; Rate 1000 g/Ha,0
"CCn1c(Cc2nc(Cl)ccc2COC)cc(=O)c(C(=O)O)c1-c1ccc(Cl)c(Cl)c1 [Compound 105, 6-[[6-chloro-3-(methoxymethyl)-2-pyridyl]methyl]-2-(3,4-dichlorophenyl)-1-ethyl-4-oxo-pyridine-3-carboxylic acid]","Pre-emergence Test, percentage damage caused to the plant (five-point scale), AMAPA",[3]; Rate 250 g/Ha,0
same,"Pre-emergence Test, percentage damage caused to the plant (five-point scale), AMARE",[2]; Rate 250 g/Ha,0
"CCn1c(Cc2ccn(CC(C)C)n2)cc(=O)c(C(=O)O)c1-c1ccc(Cl)c(Cl)c1 [Compound 121, 2-(3,4-dichlorophenyl)-1-ethyl-6-[(1-isobutylpyrazol-3-yl)methyl]-4-oxo-pyridine-3-carboxylic acid]","Pre-emergence Test, percentage damage caused to the plant (five-point scale), ZEAMX",Zea mays (ZEAMX) [4]; Rate 250 g/Ha,0
"CCn1c(Cc2ccc(C(F)F)nn2)cc(=O)c(C(=O)O)c1-c1ccc(Cl)c(Cl)c1 [Compound 108, 2-(3,4-dichlorophenyl)-6-[[6-(difluoromethyl)-pyridazin-3-yl]methyl]-1-ethyl-4-oxo-pyridine-3-carboxylic acid]","Pre-emergence Test, percentage damage caused to the plant (five-point scale), AMAPA",[3]; Rate 1000 g/Ha,0
same,"Pre-emergence Test, percentage damage caused to the plant (five-point scale), ZEAMX",Zea mays (ZEAMX) [4]; Rate 1000 g/Ha,0
same,"Pre-emergence Test, percentage damage caused to the plant (five-point scale), AMARE",[2]; Rate 1000 g/Ha,0
"CCn1c(Cc2nccs2)cc(=O)c(C(=O)O)c1-c1ccc(Cl)c(Cl)c1 [Compound 19, 2-(3,4-dichlorophenyl)-1-ethyl-4-oxo-6-(thiazol-2-ylmethyl)pyridine-3-carboxylic acid]","Pre-emergence Test, percentage damage caused to the plant (five-point scale), AMAPA",[3]; Rate 1000 g/Ha,0
same,"Pre-emergence Test, percentage damage caused to the plant (five-point scale), AMARE",[2]; Rate 1000 g/Ha,0
"CCn1c(Cc2ncc(Cl)cn2)cc(=O)c(C(=O)O)c1-c1ccc(Cl)c(Cl)c1 [Compound 4, 6-[(5-chloropyrimidin-2-yl)methyl]-2-(3,4-dichlorophenyl)-1-ethyl-4-oxo-pyridine-3-carboxylic acid]","Pre-emergence Test, percentage damage caused to the plant (five-point scale), AMAPA",[3]; Rate 1000 g/Ha,0
"CCn1c(Cc2ccc(C)c(Cl)n2)cc(=O)c(C(=O)O)c1-c1ccc(Cl)c(Cl)c1 [Compound 97, 6-[(6-chloro-5-methyl-2-pyridiyl)methyl]-2-(3,4-dichlorophenyl)-1-ethyl-4-oxo-pyridine-3-carboxylic acid]","Pre-emergence Test, percentage damage caused to the plant (five-point scale), AMAPA",[3]; Rate 1000 g/Ha,0
same,"Pre-emergence Test, percentage damage caused to the plant (five-point scale), AMARE",[2]; Rate 1000 g/Ha,0
"CCn1c(Cc2ccc(F)c(OC)c2)cc(=O)c(C(=O)O)c1-c1ccc(Cl)c(Cl)c1 [Compound 95, 2-(3,4-dichlorophenyl)-1-ethyl-6-[(4-fluoro-3-methoxy-phenyl)methyl]-4-oxo-pyridine-3-carboxylic acid]","Pre-emergence Test, percentage damage caused to the plant (five-point scale), AMAPA",[3]; Rate 1000 g/Ha,0
same,"Pre-emergence Test, percentage damage caused to the plant (five-point scale), ZEAMX",Zea mays (ZEAMX) [4]; Rate 1000 g/Ha,0
same,"Pre-emergence Test, percentage damage caused to the plant (five-point scale), AMARE",[2]; Rate 1000 g/Ha,0
"CCn1c(Cc2cccc(OC(F)(F)F)c2)cc(=O)c(C(=O)O)c1-c1ccc(Cl)c(Cl)c1 [Compound 30, 2-(3,4-dichlorophenyl)-1-ethyl-4-oxo-6-[[3-(trifluoromethoxy)phenyl]methyl]pyridine-3-carboxylic acid]","percentage damage caused to the plant, ZEAMX",Zea mays (ZEAMX) [1]; rate 1000 g/Ha,0
"CCn1c(Cc2ccnc(F)c2)cc(=O)c(C(=O)O)c1-c1ccc(Cl)c(Cl)c1 [Compound 44, 2-(3,4-dichlorophenyl)-1-ethyl-6-[(2-fluoro-4-pyridyl)methyl]-4-oxo-pyridine-3-carboxylic acid]","Pre-emergence Test, percentage damage caused to the plant (five-point scale), ZEAMX",Zea mays (ZEAMX) [4]; Rate 250 g/Ha,0
"CCn1c(Cc2cccc(C(C)F)n2)cc(=O)c(C(=O)O)c1-c1ccc(Cl)c(Cl)c1 (stereo not shown) [Compound 147, 2-(3,4-dichlorophenyl)-1-ethyl-6-[[6-(1-fluoroethyl)-2-pyridyl]methyl]-4-oxo-pyridine-3-carboxylic acid]","Pre-emergence Test, percentage damage caused to the plant (five-point scale), AMAPA",[3]; Rate 250 g/Ha,0
"CCn1c(Cc2ccn(C3CC3)n2)cc(=O)c(C(=O)O)c1-c1ccc(Cl)c(Cl)c1 [Compound 54, 6-[(1-cyclopropylpyrazol-3-yl)methyl]-2-(3,4-dichlorophenyl)-1-ethyl-4-oxo-pyridine-3-carboxylic acid]","Pre-emergence Test, percentage damage caused to the plant (five-point scale), AMAPA",[3]; Rate 1000 g/Ha,0
same,"Pre-emergence Test, percentage damage caused to the plant (five-point scale), AMARE",[2]; Rate 1000 g/Ha,0
"CCn1c(Cc2cccc(Cl)c2)cc(=O)c(C(=O)O)c1-c1ccc(Cl)c(Cl)c1 [Compound 1, 6-[(3-chlorophenyl)methyl]-2-(3,4-dichlorophenyl)-1-ethyl-4-oxo-pyridine-3-carboxylic acid]","percentage damage caused to the plant, ZEAMX",Zea mays (ZEAMX) [1]; rate 1000 g/Ha,0
"CCn1c(Cc2cc(C(F)F)ccn2)cc(=O)c(C(=O)O)c1-c1ccc(Cl)c(Cl)c1 [Compound 115, 2-(3,4-dichlorophenyl)-6-[[4-(difluoromethyl)-2-pyridyl]methyl]-1-ethyl-4-oxo-pyridine-3-carboxylic acid]","Pre-emergence Test, percentage damage caused to the plant (five-point scale), ZEAMX",Zea mays (ZEAMX) [4]; Rate 250 g/Ha,0
"CCn1c(Cc2cc(F)cc(F)c2)cc(=O)c(C(=O)O)c1-c1ccc(Cl)c(Cl)c1 [Compound 29, 2-(3,4-dichlorophenyl)-6-[(3,5-difluorophenyl)methyl]-1-ethyl-4-oxo-pyridine-3-carboxylic acid]","Pre-emergence Test, percentage damage caused to the plant (five-point scale), AMAPA",[3]; Rate 1000 g/Ha,0
same,"Pre-emergence Test, percentage damage caused to the plant (five-point scale), ZEAMX",Zea mays (ZEAMX) [4]; Rate 1000 g/Ha,0
same,"percentage damage caused to the plant, ZEAMX",Zea mays (ZEAMX) [1]; rate 1000 g/Ha,0
same,"Pre-emergence Test, percentage damage caused to the plant (five-point scale), AMARE",[2]; Rate 1000 g/Ha,0
"CCn1c(Cc2ccon2)cc(=O)c(C(=O)O)c1-c1ccc(Cl)c(Cl)c1 [Compound 149, 2-(3,4-dichlorophenyl)-1-ethyl-6-(isoxazol-3-ylmethyl)-4-oxo-pyridine-3-carboxylic acid]","Pre-emergence Test, percentage damage caused to the plant (five-point scale), ZEAMX",Zea mays (ZEAMX) [4]; Rate 250 g/Ha,0
same,"percentage damage caused to the plant, ZEAMX",Zea mays (ZEAMX) [1]; rate 250 g/Ha,0
"CCn1c(Cc2cccc(C#N)n2)cc(=O)c(C(=O)O)c1-c1ccc(Cl)c(Cl)c1 [Compound 57, 6-[(6-cyano-2-pyridyl)methyl]-2-(3,4-dichlorophenyl)-1-ethyl-4-oxo-pyridine-3-carboxylic acid]","percentage damage caused to the plant, ZEAMX",Zea mays (ZEAMX) [1]; rate 1000 g/Ha,0
"CCn1c(Cc2cc(Cl)ccn2)cc(=O)c(C(=O)O)c1-c1ccc(Cl)c(Cl)c1 [Compound 117, 6-[(4-chloro-2-pyridyl)methyl]-2-(3,4-dichlorophenyl)-1-ethyl-4-oxo-pyridine-3-carboxylic acid]","Pre-emergence Test, percentage damage caused to the plant (five-point scale), ZEAMX",Zea mays (ZEAMX) [4]; Rate 62.5 g/Ha,0
same,"percentage damage caused to the plant, ZEAMX",Zea mays (ZEAMX) [1]; rate 62.5 g/Ha,0
"CCn1c(Cc2ccc(Cl)nc2)cc(=O)c(C(=O)O)c1-c1ccc(Cl)c(Cl)c1 [Compound 129, 6-[(6-chloro-3-pyridyl)methyl]-2-(3,4-dichlorophenyl)-1-ethyl-4-oxo-pyridine-3-carboxylic acid]","Pre-emergence Test, percentage damage caused to the plant (five-point scale), AMAPA",[3]; Rate 250 g/Ha,0
same,"percentage damage caused to the plant, ZEAMX",Zea mays (ZEAMX) [1]; rate 250 g/Ha,0
"CCn1c(Cc2ccc(OC)nn2)cc(=O)c(C(=O)O)c1-c1ccc(Cl)c(Cl)c1 [Compound 133, 2-(3,4-dichlorophenyl)-1-ethyl-6-[(6-methoxypyridazin-3-yl)methyl]-4-oxo-pyridine-3-carboxylic acid]","Pre-emergence Test, percentage damage caused to the plant (five-point scale), ZEAMX",Zea mays (ZEAMX) [4]; Rate 250 g/Ha,0
"CCn1c(Cc2ccnc(C(F)(F)F)n2)cc(=O)c(C(=O)O)c1-c1ccc(Cl)c(Cl)c1 [Compound 141, 2-(3,4-dichlorophenyl)-1-ethyl-4-oxo-6-[[2-(trifluoromethyl)pyrimidin-4-yl]methyl]pyridine-3-carboxylic acid]","Pre-emergence Test, percentage damage caused to the plant (five-point scale), AMAPA",[3]; Rate 250 g/Ha,0
same,"Pre-emergence Test, percentage damage caused to the plant (five-point scale), ZEAMX",Zea mays (ZEAMX) [4]; Rate 250 g/Ha,0
"CCn1c(Cc2ccc(OC)cc2C(F)(F)F)cc(=O)c(C(=O)O)c1-c1ccc(Cl)c(Cl)c1 [Compound 65, 2-(3,4-dichlorophenyl)-1-ethyl-6-[[4-methoxy-2-(trifluoromethyl)phenyl]methyl]-4-oxo-pyridine-3-carboxylic acid]","Pre-emergence Test, percentage damage caused to the plant (five-point scale), ZEAMX",Zea mays (ZEAMX) [4]; Rate 1000 g/Ha,0
"CCn1c(Cc2cccc(Br)n2)cc(=O)c(C(=O)O)c1-c1ccc(Cl)c(Cl)c1 [Compound 138, 6-[(6-bromo-2-pyridyl)methyl]-2-(3,4-dichlorophenyl)-1-ethyl-4-oxo-pyridine-3-carboylic acid]","Pre-emergence Test, percentage damage caused to the plant (five-point scale), ZEAMX",Zea mays (ZEAMX) [4]; Rate 250 g/Ha,0
"CCn1c(Cc2ccn(C(F)F)n2)cc(=O)c(C(=O)O)c1-c1ccc(Cl)c(Cl)c1 [Compound 124, 2-(3,4-dichlorophenyl)-6-[[1-(difluoromethyl)pyrazol-3-yl]methyl]-1-ethyl-4-oxo-pyridine-3-carboxylic acid]","Pre-emergence Test, percentage damage caused to the plant (five-point scale), AMAPA",[3]; Rate 62.5 g/Ha,0
same,"Pre-emergence Test, percentage damage caused to the plant (five-point scale), ZEAMX",Zea mays (ZEAMX) [4]; Rate 62.5 g/Ha,0
same,"Pre-emergence Test, percentage damage caused to the plant (five-point scale), AMARE",[2]; Rate 62.5 g/Ha,0

# From patent US20260013501A1, “HERBICIDAL DERIVATIVES” (SYNGENTA CROP PROTECTION AG, priority 2022, published 2026)
